ChEMBL document CHEMBL2150960 (ACS Med Chem Lett, 2010)

Tests used:
[1] = biological target: Voltage-gated inwardly rectifying potassium channel KCNH2 (Homo sapiens, UniProt Q12809); assay: Displacement of […] from human ERG in HEK293 cells; assay type: cell-based
[2] = Ratio of IC50 for hyperpolarized T-type calcium channel to IC50 for depolarized T-type calcium channel
[3] = Antagonist activity at depolarized T-type calcium channel by FLIPR assay; assay type: functional
Rattus norvegicus [4] = assay: Anticonvulsant activity in WAG/Rij rat assessed as inhibition of seizure at 3 mg/kg, po measured after 4 hrs; assay type: functional
PXR (NR1I2) = biological target: T1, PXR (NR1I2) (Homo sapiens, UniProt O75469); assay: Activity at PXR at 10 uM relative to rifampicin; conditions: read-out: Activity
T1 sequence (O75469 whole entry): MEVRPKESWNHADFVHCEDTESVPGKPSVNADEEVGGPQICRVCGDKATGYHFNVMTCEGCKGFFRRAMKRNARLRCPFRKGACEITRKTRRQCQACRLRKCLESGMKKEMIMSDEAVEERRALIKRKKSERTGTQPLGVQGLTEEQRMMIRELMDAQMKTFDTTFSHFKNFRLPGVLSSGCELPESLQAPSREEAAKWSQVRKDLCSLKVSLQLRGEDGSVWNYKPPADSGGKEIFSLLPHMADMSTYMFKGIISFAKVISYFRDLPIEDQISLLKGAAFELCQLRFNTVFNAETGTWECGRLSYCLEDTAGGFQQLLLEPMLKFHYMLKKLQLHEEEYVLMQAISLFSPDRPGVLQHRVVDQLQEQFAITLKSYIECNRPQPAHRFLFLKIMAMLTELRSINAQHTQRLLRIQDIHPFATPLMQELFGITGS

LLC-PK1 = assay: Ratio of permeability from basolateral to apical side to apical to basolateral side of pig LLC-PK1 cells expressing P-gp; assay type: ADME, cell-based, Sus scrofa
[5] = Antagonist activity at L-type calcium channel by FLIPR assay; assay type: functional
[6] = Binding affinity to T-type calcium channel
P-gp = assay: Permeability across pig LLC-PK1 cells expressing P-gp; assay type: ADME, cell-based, Sus scrofa
[7] = Antagonist activity at hyperpolarized T-type calcium channel by FLIPR assay; assay type: functional
Liver microsomes [8] = assay: Covalent protein binding in human liver microsomes assessed per mg protein at 10 uM after 60 mins in presence of NADPH by NMR spectroscopy; assay type: ADME, Microsome; conditions: 1 h
[9] = Systemic clearance in rhesus monkey at 10 mg/kg; assay type: ADME, organism-based, Macaca mulatta; parameters: dose 10 mg/kg; conditions: in vivo
[10] = Systemic clearance in dog at 10 mg/kg; assay type: ADME, organism-based, Canis lupus familiaris; parameters: dose 10 mg/kg; conditions: in vivo
[11] = Plasma protein binding in dog assessed as fraction unbound at 5 uM; assay type: ADME, cell-free, Canis lupus familiaris
hERG (KCNH2) = hERG (KCNH2) (Homo sapiens, UniProt Q12809); assay: Inhibition of human ERG at 30 uM
[12] = Bioavailability in dog at 10 mg/kg; assay type: ADME, organism-based, Canis lupus familiaris; conditions: in vivo
[13] = Volume of distribution at steady state in dog at 10 mg/kg; assay type: ADME, organism-based, Canis lupus familiaris; parameters: dose 10 mg/kg; conditions: in vivo, read-out: Vdss
[14] = Plasma protein binding in rhesus monkey assessed as fraction unbound at 5 uM; assay type: ADME, Macaca mulatta
[15] = Systemic clearance in rat at 10 mg/kg; assay type: ADME, organism-based; parameters: dose 10 mg/kg; conditions: in vivo
[16] = Half life in rat at 5 mg/kg, po; assay type: ADME, organism-based; parameters: dose 5 mg/kg, route oral; conditions: in vivo
Rattus norvegicus [17] = assay: Effect on sleep wake cycle in rat assessed as suppression of active wake time at 5 mg/kg, po administered daily 30 mins before inactive phase; assay type: functional
[18] = Half life in rat at 10 mg/kg; assay type: ADME, organism-based; parameters: dose 10 mg/kg; conditions: in vivo
[19] = Volume of distribution at steady state in rat at 10 mg/kg; assay type: ADME, organism-based; parameters: dose 10 mg/kg; conditions: in vivo, read-out: Vdss
[20] = Plasma protein binding in rat assessed as fraction unbound at 5 uM; assay type: ADME, cell-free
Rattus norvegicus [21] = assay: Effect on sleep wake cycle in po dosed rat assessed as increase in delta sleep administered daily 30 mins before inactive phase measured 0.5 to 2 hrs post administration; assay type: functional, organism-based
[22] = biological target: T2, Voltage-dependent T-type calcium channel subunit alpha-1I (Homo sapiens, UniProt Q9P0X4); assay: Antagonist activity at Cav3.3 at -80 mV holding potential by whole cell patch clamp analysis; assay type: functional
[23] = Half life in dog at 10 mg/kg; assay type: ADME, organism-based, Canis lupus familiaris; parameters: dose 10 mg/kg; conditions: in vivo
[24] = biological target: T2, Voltage-dependent T-type calcium channel subunit alpha-1I; assay: Antagonist activity at Cav3.3 at -100 mV holding potential by whole cell patch clamp analysis; assay type: functional
[25] = Bioavailability in rat at 10 mg/kg; assay type: ADME, organism-based; conditions: in vivo
[26] = Apparent terminal half life in human at 20 mg, po; assay type: ADME, organism-based; conditions: in vivo, read-out: betat1/2(app) (converted)
[27] = Inhibition of Sodium channel; conditions: concentration not given here
[28] = Bioavailability in rhesus monkey at 10 mg/kg; assay type: ADME, organism-based, Macaca mulatta; conditions: in vivo
[29] = Cmax in human at 20 mg, po; assay type: ADME, organism-based; parameters: dose 20 mg, route oral; conditions: in vivo
[30] = Inhibition of L-type calcium channel at 30 uM
[31] = Volume of distribution at steady state in rhesus monkey at 10 mg/kg; assay type: ADME, organism-based, Macaca mulatta; parameters: dose 10 mg/kg; conditions: in vivo, read-out: Vdss
[32] = Plasma protein binding in human assessed as fraction unbound at 5 uM; assay type: ADME, cell-free
[33] = biological target: Voltage-gated potassium channel, IKs; KCNQ1(Kv7.1)/KCNE1(MinK) (Homo sapiens, UniProt P51787+P15382); assay: Inhibition of IKs; assay type: protein-complex assay
[34] = Half life in rhesus monkey at 10 mg/kg; assay type: ADME, organism-based, Macaca mulatta; parameters: dose 10 mg/kg; conditions: in vivo
Liver microsomes [35] = assay: Covalent protein binding in human liver microsomes assessed as GSH adduct formation measured per mg protein at 10 uM after 60 mins in presence of NADPH by NMR spectroscopy; assay type: ADME, Microsome; conditions: 1 h

Chain of Voltage-gated inwardly rectifying potassium channel KCNH2 (Q12809 whole entry): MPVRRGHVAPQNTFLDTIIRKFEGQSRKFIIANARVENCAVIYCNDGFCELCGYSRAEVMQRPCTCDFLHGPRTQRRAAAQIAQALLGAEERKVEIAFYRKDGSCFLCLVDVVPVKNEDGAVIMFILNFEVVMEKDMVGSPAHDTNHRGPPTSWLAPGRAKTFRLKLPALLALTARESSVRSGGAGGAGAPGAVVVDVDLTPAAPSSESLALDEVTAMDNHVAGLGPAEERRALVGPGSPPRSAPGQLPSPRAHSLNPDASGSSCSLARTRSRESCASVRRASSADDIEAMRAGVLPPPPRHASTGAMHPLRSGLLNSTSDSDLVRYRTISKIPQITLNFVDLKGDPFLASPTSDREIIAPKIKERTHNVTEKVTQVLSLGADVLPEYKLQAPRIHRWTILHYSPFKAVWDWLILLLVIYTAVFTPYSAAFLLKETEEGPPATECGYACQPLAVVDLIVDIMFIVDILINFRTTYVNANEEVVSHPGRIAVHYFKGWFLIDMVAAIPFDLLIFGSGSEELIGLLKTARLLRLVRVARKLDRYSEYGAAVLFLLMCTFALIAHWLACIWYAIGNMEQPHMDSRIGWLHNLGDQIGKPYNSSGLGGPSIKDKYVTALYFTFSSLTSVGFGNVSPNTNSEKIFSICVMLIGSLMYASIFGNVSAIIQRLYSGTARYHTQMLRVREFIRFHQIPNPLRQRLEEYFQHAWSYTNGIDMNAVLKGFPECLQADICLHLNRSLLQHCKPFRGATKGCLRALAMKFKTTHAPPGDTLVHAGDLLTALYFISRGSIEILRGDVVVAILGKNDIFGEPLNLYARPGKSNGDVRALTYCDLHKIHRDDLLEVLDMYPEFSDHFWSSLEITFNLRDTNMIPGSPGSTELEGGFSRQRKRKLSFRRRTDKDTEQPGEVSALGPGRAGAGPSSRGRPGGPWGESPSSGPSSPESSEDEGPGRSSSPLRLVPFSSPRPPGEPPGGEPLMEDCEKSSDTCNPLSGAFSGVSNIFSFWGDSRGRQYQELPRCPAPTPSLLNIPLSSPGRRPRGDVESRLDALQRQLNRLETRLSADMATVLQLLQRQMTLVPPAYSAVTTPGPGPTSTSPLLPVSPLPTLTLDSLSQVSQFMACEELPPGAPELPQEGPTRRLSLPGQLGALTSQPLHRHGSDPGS
T2 sequence (Q9P0X4 whole entry): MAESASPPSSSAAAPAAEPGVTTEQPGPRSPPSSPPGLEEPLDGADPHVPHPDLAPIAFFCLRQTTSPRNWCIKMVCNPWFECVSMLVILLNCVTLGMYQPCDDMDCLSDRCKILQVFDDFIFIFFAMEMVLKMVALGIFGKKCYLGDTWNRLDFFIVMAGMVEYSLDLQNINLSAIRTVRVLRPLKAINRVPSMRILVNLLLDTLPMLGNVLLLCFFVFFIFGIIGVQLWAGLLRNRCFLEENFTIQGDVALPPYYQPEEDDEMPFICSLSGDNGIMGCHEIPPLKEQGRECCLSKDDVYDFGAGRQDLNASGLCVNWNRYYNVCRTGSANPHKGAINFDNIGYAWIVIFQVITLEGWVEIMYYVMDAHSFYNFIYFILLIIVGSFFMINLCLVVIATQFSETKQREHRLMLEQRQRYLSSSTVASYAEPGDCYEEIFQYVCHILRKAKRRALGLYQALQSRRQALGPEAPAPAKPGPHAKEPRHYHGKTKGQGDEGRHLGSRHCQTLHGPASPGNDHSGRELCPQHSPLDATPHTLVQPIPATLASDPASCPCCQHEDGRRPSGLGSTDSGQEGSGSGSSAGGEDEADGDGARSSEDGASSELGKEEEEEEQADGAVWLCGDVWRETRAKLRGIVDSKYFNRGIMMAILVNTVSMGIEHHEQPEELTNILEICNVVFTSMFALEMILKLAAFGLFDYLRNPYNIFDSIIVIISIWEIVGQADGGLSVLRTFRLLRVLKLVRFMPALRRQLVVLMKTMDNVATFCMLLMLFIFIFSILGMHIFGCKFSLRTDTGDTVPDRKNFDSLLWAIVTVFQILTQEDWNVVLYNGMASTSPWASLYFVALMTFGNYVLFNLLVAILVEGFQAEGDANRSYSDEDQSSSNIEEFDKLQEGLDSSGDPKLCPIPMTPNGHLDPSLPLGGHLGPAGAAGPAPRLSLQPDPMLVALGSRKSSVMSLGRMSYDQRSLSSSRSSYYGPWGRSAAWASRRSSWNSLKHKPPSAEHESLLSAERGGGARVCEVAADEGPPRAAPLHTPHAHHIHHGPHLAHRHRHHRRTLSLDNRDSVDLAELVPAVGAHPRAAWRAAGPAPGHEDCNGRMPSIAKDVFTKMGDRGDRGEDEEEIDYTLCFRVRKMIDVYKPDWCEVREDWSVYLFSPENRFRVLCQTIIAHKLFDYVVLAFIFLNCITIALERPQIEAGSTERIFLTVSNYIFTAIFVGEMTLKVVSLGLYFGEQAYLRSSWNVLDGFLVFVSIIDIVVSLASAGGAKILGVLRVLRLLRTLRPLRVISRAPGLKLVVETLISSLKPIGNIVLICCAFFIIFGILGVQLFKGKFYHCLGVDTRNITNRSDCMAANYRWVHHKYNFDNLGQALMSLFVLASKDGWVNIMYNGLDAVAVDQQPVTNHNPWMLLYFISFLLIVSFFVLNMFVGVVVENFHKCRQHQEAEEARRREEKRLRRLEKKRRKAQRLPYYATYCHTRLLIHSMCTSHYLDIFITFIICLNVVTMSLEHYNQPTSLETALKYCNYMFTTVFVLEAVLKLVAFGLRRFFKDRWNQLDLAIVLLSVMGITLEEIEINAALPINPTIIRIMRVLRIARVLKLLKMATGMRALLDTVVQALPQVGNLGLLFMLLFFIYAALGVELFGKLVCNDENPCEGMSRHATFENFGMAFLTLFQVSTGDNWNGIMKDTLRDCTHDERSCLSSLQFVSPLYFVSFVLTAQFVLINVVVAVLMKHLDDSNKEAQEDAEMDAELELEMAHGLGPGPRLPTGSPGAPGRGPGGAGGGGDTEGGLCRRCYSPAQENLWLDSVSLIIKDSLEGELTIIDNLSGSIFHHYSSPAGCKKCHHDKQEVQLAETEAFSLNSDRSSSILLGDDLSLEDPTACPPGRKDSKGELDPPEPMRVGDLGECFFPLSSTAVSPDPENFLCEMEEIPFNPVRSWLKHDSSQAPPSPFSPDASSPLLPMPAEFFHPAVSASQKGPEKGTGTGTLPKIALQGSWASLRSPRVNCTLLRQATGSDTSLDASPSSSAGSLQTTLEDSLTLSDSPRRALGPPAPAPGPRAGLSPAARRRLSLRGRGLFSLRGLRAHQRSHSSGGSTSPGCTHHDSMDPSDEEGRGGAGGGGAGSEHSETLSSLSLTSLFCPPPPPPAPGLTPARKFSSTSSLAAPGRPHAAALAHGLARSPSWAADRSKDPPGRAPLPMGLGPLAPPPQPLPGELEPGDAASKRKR
Chain of hERG (KCNH2) (Q12809 whole entry): as the sequence (Q12809 whole entry) above

In the case of `C[C@@H](NC(=O)Cc1ccc(C2CC2)cc1)c1ccc(OCC(F)(F)F)cn1`, the IC50 [1] is reported as greater than 10000 nM, the Ratio IC50 [2] is reported as greater than 80 and the IC50 [3] is reported as 9.4 nM. The inhibition in vivo at 3 mg/kg (Rattus norvegicus [4]) was 87%, the activity at 10 µM (PXR (NR1I2)) was 17% and the Ratio (LLC-PK1) was 0.7. It also gave an IC50 [5] greater than 10000 nM, a Ki [6] of 1.2 nM and a Papp (P-gp) of 45 ×10⁻⁶ cm/s. The IC50 [7] was 384 nM.

In the case of `Cc1nccnc1-c1ccc(CC(=O)N[C@H](C)c2ccc(OCC(F)(F)F)cn2)cc1`, the PB (Liver microsomes [8]) is reported as 8 pmol, the clearance [9] is reported as 19.3 mL/min/kg and the IC50 [1] is reported as greater than 30000 nM. For the same compound, the Ratio IC50 [2] was greater than 80, the clearance [10] was 11.8 mL/min/kg and the fraction unbound at 5 µM [11] was 0.155. The inhibition at 30 µM (hERG (KCNH2)) was 41%, the bioavailability [12] was 23% and the Vd [13] was 0.36 L/kg. It also gave a fraction unbound at 5 µM [14] of 0.146, a clearance [15] of 30.3 mL/min/kg and an IC50 [3] of 31.3 nM. It also gave a half-life [16] of 14 min, a Time (Rattus norvegicus [17]) of 1.5 h and an inhibition in vivo at 3 mg/kg (Rattus norvegicus [4]) of 87%. The half-life [18] was 14.4 min, the Vd [19] was 0.59 L/kg and the fraction unbound at 5 µM [20] was 0.123. For the same compound, the Activity (Rattus norvegicus [21]) was “Dose-dependent effect”, the IC50 [22] was 264 nM and the activity at 10 µM (PXR (NR1I2)) was 8%. For the same compound, the half-life [23] was 48.6 min, the IC50 [24] was 12000 nM and the Ratio (LLC-PK1) was 1.3. For the same compound, the bioavailability [25] was 71%, the half-life [26] was 180 min and the inhibition [27] was 20%. It also gave a bioavailability [28] of 5%, a Cmax [29] of 1820 nM and an IC50 [5] greater than 10000 nM. It also gave an inhibition [30] of 12%, a Vd [31] of 0.74 L/kg and a Ki [6] of 5.5 nM. For the same compound, the fraction unbound at 5 µM [32] was 0.032, the Papp (P-gp) was 44 ×10⁻⁶ cm/s and the “inhibition (INH)” value [33] was “Not Active”. The IC50 [7] was 1920 nM and the half-life [34] was 31.8 min.

Work on `C[C@@H](NC(=O)Cc1ccc(-c2cnn3ncccc23)cc1)c1ccc(OCC(F)(F)F)cn1` yielded an IC50 [1] greater than 30000 nM, a Ratio IC50 [2] greater than 80 and an IC50 [3] of 5.4 nM. The inhibition in vivo at 3 mg/kg (Rattus norvegicus [4]) was 85%, the activity at 10 µM (PXR (NR1I2)) was 0% and the PB (Liver microsomes [35]) was 244 pmol. The Ratio (LLC-PK1) was 1.3, the IC50 [5] was greater than 10000 nM and the Papp (P-gp) was 38 ×10⁻⁶ cm/s. It also gave an IC50 [7] of 397 nM.

In the case of `C[C@@H](NC(=O)Cc1ccc(N2CC[C@H](F)C2)cc1)c1ccc(OCC(F)(F)F)cn1`, the IC50 [3] is reported as 3.7 nM, the activity at 10 µM (PXR (NR1I2)) is reported as 31% and the IC50 [5] is reported as greater than 10000 nM. It also gave a Ki [6] of 0.3 nM, a Papp (P-gp) of 41 ×10⁻⁶ cm/s and an IC50 [7] of 249 nM.

In the case of `Cc1ncoc1-c1ccc(CC(=O)N[C@H](C)c2ccc(OCC(F)(F)F)cn2)cc1`, the IC50 [1] is reported as greater than 30000 nM, the Ratio IC50 [2] is reported as greater than 80 and the clearance [10] is reported as 3.6 mL/min/kg. The fraction unbound at 5 µM [11] was 0.016, the bioavailability [12] was 50% and the Vd [13] was 0.3 L/kg. For the same compound, the clearance [15] was 35 mL/min/kg, the IC50 [3] was 5.3 nM and the inhibition in vivo at 3 mg/kg (Rattus norvegicus [4]) was 72%. For the same compound, the half-life [18] was 24 min, the Vd [19] was 1.1 L/kg and the fraction unbound at 5 µM [20] was 0.052. The activity at 10 µM (PXR (NR1I2)) was 7%, the half-life [23] was 66 min and the PB (Liver microsomes [35]) was 1558 pmol. For the same compound, the Ratio (LLC-PK1) was 1.1, the bioavailability [25] was 100% and the IC50 [5] was greater than 10000 nM. For the same compound, the Ki [6] was 0.2 nM, the Papp (P-gp) was 35 ×10⁻⁶ cm/s and the IC50 [7] was 206 nM.
